# According to paper PMC3388095, “Fluorophore Labeled Kinase Detects Ligands That Bind within the MAPK Insert of p38α Kinase” (PLoS ONE, 2012):
# Key:
# Assay in all cases: Kinase selectivity profile, 33P-ATP filter-binding assay
# Assay type in all cases: biochemical
# CK2 = CK2 (Homo sapiens, UniProt P68400)
# In short: (§1)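 Radiometric filter assay (33P-ATP) within a 95-kinase selectivity screen; one concentration, 10 µM, gives % remaining activity.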
# ERK2 = ERK2 (Homo sapiens, UniProt P28482)
# In short: as §1
# MARK2 = MARK2 (Homo sapiens, UniProt Q7KZI7)
# In short: as §1
# MST4 = MST4 (Homo sapiens, UniProt Q9P289)
# In short: as §1
# PAK5 = PAK5 (Homo sapiens, UniProt Q9P286)
# In short: as §1
# PDK1 = PDK1 (Homo sapiens, UniProt O15530)
# In short: as §1
# PIM3 = PIM3 (Homo sapiens, UniProt Q86V86)
# In short: as §1
# PKBβ = PKBβ (Homo sapiens, UniProt P31751)
# In short: as §1
# PKCz = PKCz (Homo sapiens, UniProt Q05513)
# In short: as §1
# ROCK 2 = ROCK 2 (Rattus norvegicus, UniProt Q62868)
# In short: as §1
# SGK1 = SGK1 (Homo sapiens, UniProt O00141)
# In short: as §1
# VEG-FR = VEG-FR (Homo sapiens, UniProt P17948)
# In short: as §1
# YES1 = YES1 (Homo sapiens, UniProt P07947)
# In short: as §1
# ERK2, sequence (P28482 whole entry): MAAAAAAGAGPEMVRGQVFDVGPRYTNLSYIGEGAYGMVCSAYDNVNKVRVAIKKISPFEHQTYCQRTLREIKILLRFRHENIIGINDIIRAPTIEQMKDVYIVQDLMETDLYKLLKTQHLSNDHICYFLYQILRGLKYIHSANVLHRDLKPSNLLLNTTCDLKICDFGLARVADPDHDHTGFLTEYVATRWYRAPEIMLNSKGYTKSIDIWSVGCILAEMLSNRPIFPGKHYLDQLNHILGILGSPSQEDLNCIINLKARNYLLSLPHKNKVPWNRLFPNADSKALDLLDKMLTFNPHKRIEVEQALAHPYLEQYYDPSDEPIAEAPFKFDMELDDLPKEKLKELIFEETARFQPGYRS
# CK2, sequence (P68400 whole entry): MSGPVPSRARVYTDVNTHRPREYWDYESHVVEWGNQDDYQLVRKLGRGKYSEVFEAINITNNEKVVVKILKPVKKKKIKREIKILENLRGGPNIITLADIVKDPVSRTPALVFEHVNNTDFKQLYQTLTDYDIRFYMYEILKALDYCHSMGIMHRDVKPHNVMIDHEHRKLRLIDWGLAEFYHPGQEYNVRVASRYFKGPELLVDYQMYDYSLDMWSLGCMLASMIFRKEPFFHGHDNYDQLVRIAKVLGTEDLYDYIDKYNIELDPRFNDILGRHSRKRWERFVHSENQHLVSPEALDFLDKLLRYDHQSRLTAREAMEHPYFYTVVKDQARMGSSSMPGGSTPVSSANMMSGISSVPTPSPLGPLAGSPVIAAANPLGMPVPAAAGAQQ
# SGK1, sequence (O00141 whole entry): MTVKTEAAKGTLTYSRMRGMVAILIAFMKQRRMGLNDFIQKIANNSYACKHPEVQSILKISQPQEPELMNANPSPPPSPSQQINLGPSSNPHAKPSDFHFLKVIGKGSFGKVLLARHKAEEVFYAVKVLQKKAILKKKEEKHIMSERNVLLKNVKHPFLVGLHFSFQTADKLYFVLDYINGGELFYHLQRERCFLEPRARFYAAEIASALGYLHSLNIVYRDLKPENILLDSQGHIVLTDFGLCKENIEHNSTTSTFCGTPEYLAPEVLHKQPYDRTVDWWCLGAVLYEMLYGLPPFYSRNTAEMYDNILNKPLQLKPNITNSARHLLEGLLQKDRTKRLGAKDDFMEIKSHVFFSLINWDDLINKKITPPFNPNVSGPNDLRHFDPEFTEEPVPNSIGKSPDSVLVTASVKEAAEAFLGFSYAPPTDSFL
# PKBβ, sequence (P31751 whole entry): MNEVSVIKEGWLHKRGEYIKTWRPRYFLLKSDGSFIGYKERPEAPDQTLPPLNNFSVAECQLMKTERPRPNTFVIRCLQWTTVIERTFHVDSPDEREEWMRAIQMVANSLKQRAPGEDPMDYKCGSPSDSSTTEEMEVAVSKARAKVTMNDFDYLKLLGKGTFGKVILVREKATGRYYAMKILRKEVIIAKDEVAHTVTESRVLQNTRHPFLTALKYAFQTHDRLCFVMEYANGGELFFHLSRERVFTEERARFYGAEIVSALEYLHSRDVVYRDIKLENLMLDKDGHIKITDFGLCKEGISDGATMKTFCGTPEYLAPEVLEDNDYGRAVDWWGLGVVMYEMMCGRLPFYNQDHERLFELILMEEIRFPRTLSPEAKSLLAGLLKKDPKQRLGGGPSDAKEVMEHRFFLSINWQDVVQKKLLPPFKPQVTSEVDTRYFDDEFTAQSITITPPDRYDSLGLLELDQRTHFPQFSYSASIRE
# VEG-FR, sequence (P17948 27-1338): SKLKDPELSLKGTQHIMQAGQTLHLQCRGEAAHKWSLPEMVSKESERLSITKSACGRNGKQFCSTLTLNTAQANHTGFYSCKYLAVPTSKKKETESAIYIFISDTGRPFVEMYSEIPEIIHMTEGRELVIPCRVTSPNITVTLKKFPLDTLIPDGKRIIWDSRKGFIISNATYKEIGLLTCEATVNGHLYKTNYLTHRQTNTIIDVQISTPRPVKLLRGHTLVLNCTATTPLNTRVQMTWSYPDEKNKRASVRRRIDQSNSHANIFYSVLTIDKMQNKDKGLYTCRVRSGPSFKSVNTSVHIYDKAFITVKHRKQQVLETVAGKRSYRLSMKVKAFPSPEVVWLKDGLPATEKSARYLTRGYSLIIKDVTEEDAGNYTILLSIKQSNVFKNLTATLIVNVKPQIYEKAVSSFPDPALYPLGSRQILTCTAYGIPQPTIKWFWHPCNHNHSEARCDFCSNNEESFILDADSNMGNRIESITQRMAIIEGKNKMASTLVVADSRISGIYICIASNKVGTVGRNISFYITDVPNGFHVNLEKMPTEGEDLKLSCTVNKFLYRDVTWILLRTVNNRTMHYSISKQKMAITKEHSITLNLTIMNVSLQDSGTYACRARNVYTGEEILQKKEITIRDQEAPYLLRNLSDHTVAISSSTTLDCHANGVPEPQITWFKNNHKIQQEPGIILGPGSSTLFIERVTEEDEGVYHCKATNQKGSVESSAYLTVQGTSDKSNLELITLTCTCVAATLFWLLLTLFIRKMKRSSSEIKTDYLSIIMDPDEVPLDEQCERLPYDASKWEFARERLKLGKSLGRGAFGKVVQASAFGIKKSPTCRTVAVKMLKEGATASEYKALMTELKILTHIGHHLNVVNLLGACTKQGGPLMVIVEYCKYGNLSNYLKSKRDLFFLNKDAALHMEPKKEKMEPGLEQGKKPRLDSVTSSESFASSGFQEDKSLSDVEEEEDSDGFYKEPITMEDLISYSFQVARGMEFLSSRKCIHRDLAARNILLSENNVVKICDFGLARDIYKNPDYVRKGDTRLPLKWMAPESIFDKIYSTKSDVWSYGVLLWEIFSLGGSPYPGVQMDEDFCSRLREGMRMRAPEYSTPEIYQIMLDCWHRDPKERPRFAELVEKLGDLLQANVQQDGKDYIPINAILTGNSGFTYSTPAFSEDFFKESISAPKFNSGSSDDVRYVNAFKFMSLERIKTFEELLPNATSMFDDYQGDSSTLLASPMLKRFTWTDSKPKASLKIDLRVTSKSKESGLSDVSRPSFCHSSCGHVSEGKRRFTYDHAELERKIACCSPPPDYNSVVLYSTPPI
# ROCK 2, sequence (Q62868 2-543 limits assumed): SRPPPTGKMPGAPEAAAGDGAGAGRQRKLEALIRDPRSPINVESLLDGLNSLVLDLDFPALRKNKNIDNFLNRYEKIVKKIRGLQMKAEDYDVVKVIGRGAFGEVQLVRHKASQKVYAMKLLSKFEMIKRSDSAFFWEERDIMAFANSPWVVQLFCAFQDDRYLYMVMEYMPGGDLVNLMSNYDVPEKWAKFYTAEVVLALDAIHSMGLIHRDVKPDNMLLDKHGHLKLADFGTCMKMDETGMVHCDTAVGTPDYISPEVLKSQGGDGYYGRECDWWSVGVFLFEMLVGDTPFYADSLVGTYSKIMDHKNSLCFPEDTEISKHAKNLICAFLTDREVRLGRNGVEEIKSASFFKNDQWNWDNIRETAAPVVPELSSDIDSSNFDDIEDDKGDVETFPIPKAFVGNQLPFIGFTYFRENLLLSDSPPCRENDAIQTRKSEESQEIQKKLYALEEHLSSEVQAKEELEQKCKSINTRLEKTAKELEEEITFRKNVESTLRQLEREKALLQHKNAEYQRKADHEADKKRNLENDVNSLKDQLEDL
# YES1, sequence (P07947 whole entry): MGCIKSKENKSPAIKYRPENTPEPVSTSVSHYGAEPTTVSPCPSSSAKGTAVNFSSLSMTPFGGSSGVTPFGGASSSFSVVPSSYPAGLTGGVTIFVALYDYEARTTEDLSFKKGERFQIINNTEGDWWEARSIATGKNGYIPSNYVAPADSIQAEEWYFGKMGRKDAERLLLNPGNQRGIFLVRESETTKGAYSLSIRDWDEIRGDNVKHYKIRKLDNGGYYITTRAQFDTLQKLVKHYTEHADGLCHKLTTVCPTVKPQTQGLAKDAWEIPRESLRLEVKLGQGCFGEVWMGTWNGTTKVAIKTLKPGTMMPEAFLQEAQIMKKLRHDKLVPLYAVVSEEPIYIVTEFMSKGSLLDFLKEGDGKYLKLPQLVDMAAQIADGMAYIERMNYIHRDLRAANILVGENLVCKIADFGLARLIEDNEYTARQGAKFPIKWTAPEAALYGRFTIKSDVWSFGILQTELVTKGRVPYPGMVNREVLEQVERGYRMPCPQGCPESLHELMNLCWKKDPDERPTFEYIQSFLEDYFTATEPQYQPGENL
# PDK1, sequence (O15530 whole entry): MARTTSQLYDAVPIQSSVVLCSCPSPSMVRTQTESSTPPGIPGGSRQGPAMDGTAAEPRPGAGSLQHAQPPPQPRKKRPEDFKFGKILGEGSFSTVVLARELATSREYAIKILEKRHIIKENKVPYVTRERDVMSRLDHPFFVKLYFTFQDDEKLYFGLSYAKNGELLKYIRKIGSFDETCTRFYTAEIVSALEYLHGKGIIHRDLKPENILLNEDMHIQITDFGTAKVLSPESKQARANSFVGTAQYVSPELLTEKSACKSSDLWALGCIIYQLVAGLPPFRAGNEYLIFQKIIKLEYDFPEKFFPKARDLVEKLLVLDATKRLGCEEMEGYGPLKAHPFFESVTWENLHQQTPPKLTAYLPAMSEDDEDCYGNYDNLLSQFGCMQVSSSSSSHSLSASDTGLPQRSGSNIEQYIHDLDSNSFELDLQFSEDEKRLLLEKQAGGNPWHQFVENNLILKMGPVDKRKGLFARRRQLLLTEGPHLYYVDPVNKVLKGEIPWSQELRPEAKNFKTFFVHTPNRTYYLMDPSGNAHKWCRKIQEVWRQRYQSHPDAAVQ
smiles,measurement,setting,value
"Nc1ccc2c(NC3CC3)nc(-c3ccccc3)nc2c1 [1b, N^4-Cyclopropyl-2-phenyl-4,7-quinazolinediamine]",remaining activity at 10 µM,CK2,85%
same,remaining activity at 10 µM,ERK2,98%
same,remaining activity at 10 µM,MARK2,100%
same,remaining activity at 10 µM,MST4,99%
same,remaining activity at 10 µM,PAK5,88%
same,remaining activity at 10 µM,PDK1,100%
same,remaining activity at 10 µM,PIM3,77%
same,remaining activity at 10 µM,PKBβ,75%
same,remaining activity at 10 µM,PKCz,96%
same,remaining activity at 10 µM,ROCK 2,109%
same,remaining activity at 10 µM,SGK1,92%
same,remaining activity at 10 µM,VEG-FR,95%
same,remaining activity at 10 µM,YES1,96%
